This is an account of results in patent US8063047B2, “Pyridazine compounds and methods” (Centre National de la Recherche Scientifique (CNRS), priority 2004, dated 2011).

For series [1], the system named is IL-1β production by BV-2 mouse microglial cells stimulated with LPS. Put plainly: LPS-induced IL-1β production in BV-2 microglial cells. Format: cell-based. Conditions: BV-2 cells, LPS 100 ng/ml, 16 hrs, cell lysates, MSD assay. On the procedure:
(§1) BV-2 cells were treated with LPS (100 ng/ml) in the absence or presence of increasing concentrations of MW01-2-151WH or three structurally related analogs (MW01-3-202WH and MW01-3-173WH) for 16 hrs with levels of IL-1β and TNFα in cell lysates measured by the Meso-Scale Discovery electrochemiluminescent detection assay (See, e.g., Example 1, Materials and Methods). Data are the mean+/−SEM of triplicate determinations.
(§2) Biological investigations were done with compounds disclosed herein that were >95% homogenous as determined by HPLC/MS analysis. As part of a hierarchal, cell-based screening protocol, the compounds were screened for their ability to block IL-1β and TNFα production by BV-2 mouse microglial cells stimulated with LPS. The data for MWO1-2-1-151WH and the three structurally related analogs (MW01-3-202WH and MW01-3-173WH,) is shown (See, e.g., FIG. 2). Derivative groups that may be used to modify the compounds of the present invention can be found in U.S. Patent Application No. 20030176437 (herein incorporated by reference in its entirety for all purposes).
(§3) Cell Culture Assays. […] EL-1/3 and TNFa levels in cell lysates were determined by electro-chemiluminescent detection in a Meso-Scale Discovery (MSD) kit, as per the manufacturer's instructions.

The test system of series [2] is TNFα production by BV-2 mouse microglial cells stimulated with LPS. Put plainly: LPS-induced TNFα production in BV-2 microglial cells. Format: cell-based. The conditions noted are these: BV-2 cells, LPS 100 ng/ml, 16 hrs, cell lysates, MSD assay. How it is done:
as §1, §2, §3

Series [3] concerns Accumulation of the NO metabolite, nitrite, BV-2 microglial cells. Put plainly: Nitrite (NO metabolite) accumulation in BV-2 microglial cells. Format: cell-based, mouse. The conditions noted are these: BV-2 cells, concentrations up to 50 μM. On the procedure: FIG. 4 A-C are graphs of the cell-based activity of MW01-2-151WH in BV-2 microglial cells. MW01-2-151WH is a concentration-dependent and selective inhibitor of proinflammatory cytokine production by activated glia. […] (C) Accumulation of the NO metabolite, nitrite, was not inhibited at concentrations up to 50 μM.

Series [4] deals with Aβ-induced neuroinflammation and synaptic damage. Put plainly: Aβ1-42 ICV infusion mouse model, hippocampal endpoints. Format: in vivo, C57B1/6 mice. Conditions: mice infused ICV with Aβ1-42; […] per day i.p. for 14 days. How it is done: FIG. 3A-F are graphs of MW01-2-151WH suppression of Aβ-induced neuroinflammation and synaptic damage. Hippocampal sections or extracts from vehicle-infused mice (control), Aβ-infused mice injected with solvent, and Aβ-infused mice injected with MW01-2-151 WH were evaluated for neuroinflammation by measurement of the levels of the pro-inflammatory cytokines IL-1β (A), TNFα(B), and S100B (C), and the number of GFAP-positive astrocytes, (D) and F4/80-positive microglia, (E), and evaluated for synaptic damage by analysis of the levels of the postsynaptic density protein 95 (PSD-95) (F). Data are from one of two independent experiments, and are the mean±SEM for 4-5 mice per experimental group.
In vivo Assays. Aβ-42 infusions and treatment of C57B1/6 mice with MW01-2-151WH were performed as previously described. Briefly, oligomeric […] was infused ICV for 28 days with a micro-osmotic pump. At post-operative day 21 and continuing for 14 days thereafter, mice were injected intraperitoneally once daily with either MW01-2-151WH (2.5 mg/kg per day) or solvent control (10% DMSO in saline). At post-operative day 60, mice were perfused and sacrificed, and hippocampal endpoints measured as previously described. […]

The next series deals with liver, lungs, and kidney. Put plainly: Graded dose, acute toxicity assay (histology of liver, lung, kidney). Conditions: mice, oral gavage once daily for 3 days, up to 50 mg/kg. Format: in vivo. How it is done:
Vehicle (panels A,C,E) or MW01-2-151 WH (panels B,D,F) was orally administered (gavage) to mice daily for three days at 50 mg/kg (20-fold greater than a therapeutic dose, described in Materials and Methods).
Graded dose, acute toxicity assays Vehicle (30% DMSO) or MW01-2-151WH (3.1, 12.5 or 50 mg/kg) in 0.5% carboxymethylcellulose was administered by oral gavage once daily for 3 days. On the 4th day, mice were anesthetized with pentobarbital, intubated and the lungs were inflated with an air containing syringe. The mice were perfused through the right ventricle and the lungs, liver and kidneys were then harvested and fixed in 4% paraformaldehyde for histology. Paraffin embedded hematoxylin & eosin stained sections of each organ were prepared by standard techniques.

Regarding “5,6-dihydro-3-(4-phenylpiperazin-1-yl)benzo[h]cinnoline [MW01-3-173WH]”, in series [1], the “inhibition of LPS-induced IL-1β production” value is “somewhat less suppressive activity”. The “inhibition of LPS-induced TNFα production” value in series [2] is “somewhat less suppressive activity”.
Consider `c1ccc(N2CCN(c3cc4c(nn3)-c3ccccc3CC4)CC2)nc1` [MW01-3-202WH, 5,6-dihydro-3-(4-(pyridm-2-yl)piperazin-1-yl)benzo[h]cinnoline], for which the “inhibition of LPS-induced IL-1β production” value in series [1] was “somewhat less suppressive activity”. For the same compound, the “inhibition of LPS-induced TNFα production” value in series [2] is on record as “somewhat less suppressive activity”.
With “5,6-dihydro-3-(4-(pyrimidin-2-yl)piperazin-1-yl)benzo[h]cinnoline [MW01-2-151WH]”, the “inhibition of LPS-induced IL-1β production” value in series [1] is “Concentration-dependent inhibition”; in series [1] (listed as MW01-2-151 WH), “suppressed”. The results for the “inhibition of LPS-induced TNFα production” value in series [2] and in series [2] (listed as MW01-2-151 WH) were “Concentration-dependent inhibition” and “suppressed”, respectively. In series [3], the “Accumulation of the NO metabolite, nitrite” value is “not inhibited”. Besides, the “number of F4/80 positive microglia” value in series [4] is listed as “suppressed”. Besides, the “tissue toxicity (histology of liver, lung, kidney), acute” value with liver, lungs, and kidney was “No tissue toxicity was observed”; with liver, lungs, and kidney (listed as MW01-2-151 WH) it was “no histological evidence of toxicity”.
